Source: patent publication US9238631B2, “Radiolabeled amino acids for diagnostic imaging” (PIRAMAL IMAGING SA, priority 2011, dated 2016)

Columns and labels:
[1] = system: NCI-H460 (human NSCLC) cells; assay: In vitro cell-uptake study: blocking of radiolabeled glutamate derivative uptake; format: cell-based; conditions: compound 1 mM, 30 minutes, mean ± SD, without compound = 100%
Method: The ability of compounds from the present invention to compete with radiolabeled glutamate derivatives for uptake into tumor cells was examined. NCI-H460 (human NSCLC) cells, grown adherently in 48 well plates were used for these competition-experiments. Approximately 100.000 cells were co-incubated in PBS-buffer containing 0.1% BSA with a radiolabeled Glutamic acid derivative and several compounds, which were used at a concentration of 1 mM for 30 minutes. After this time, the cell bound radioactivity was determined.

xCT (SLC7A11) = molecular target: T1, xCT (SLC7A11) (Homo sapiens, UniProt Q9UPY5); assay: Competition profile indicating uptake via xCT (SLC7A11); format: cell-based; conditions: NCI-H460 cells; for competition profile / uptake mechanism of the tracer: co-incubation with 1 mM cold competitors
T1 construct: NCI-H460 tumor cells were co-incubated with the F-18 labeled tracer and several cold derivatives; endogenous in cells; host or cells: NCI-H460 tumor cells
T1 sequence (Q9UPY5 1-501): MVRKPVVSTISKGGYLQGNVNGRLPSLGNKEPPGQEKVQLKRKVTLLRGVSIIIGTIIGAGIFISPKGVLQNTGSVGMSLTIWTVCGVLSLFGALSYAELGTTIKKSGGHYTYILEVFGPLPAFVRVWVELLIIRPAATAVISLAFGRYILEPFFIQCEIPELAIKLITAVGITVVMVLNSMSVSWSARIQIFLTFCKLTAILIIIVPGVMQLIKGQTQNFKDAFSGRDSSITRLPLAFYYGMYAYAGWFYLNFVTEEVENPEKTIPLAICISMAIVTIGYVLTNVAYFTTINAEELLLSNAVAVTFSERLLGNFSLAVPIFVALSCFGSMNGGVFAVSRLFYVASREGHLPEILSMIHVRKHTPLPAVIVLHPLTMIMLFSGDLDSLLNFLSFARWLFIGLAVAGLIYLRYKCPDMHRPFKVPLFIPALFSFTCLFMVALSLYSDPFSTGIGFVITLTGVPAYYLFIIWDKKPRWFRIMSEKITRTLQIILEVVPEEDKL
T1 sequence (P08195 1-529 partner): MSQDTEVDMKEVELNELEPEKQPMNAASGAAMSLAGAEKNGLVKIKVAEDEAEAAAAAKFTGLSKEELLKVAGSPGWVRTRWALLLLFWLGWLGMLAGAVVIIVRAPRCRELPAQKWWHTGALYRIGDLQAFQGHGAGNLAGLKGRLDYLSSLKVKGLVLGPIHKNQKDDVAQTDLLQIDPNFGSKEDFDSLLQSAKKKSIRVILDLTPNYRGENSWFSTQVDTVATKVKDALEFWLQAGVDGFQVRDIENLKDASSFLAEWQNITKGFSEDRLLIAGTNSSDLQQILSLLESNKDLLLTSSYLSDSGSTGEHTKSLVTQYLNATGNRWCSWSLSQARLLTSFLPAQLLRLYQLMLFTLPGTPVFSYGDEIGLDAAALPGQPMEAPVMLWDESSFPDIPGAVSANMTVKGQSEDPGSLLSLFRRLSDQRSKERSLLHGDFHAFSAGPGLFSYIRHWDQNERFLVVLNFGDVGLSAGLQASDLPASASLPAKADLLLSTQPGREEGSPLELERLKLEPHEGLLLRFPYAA
Method: For determination of the responsible uptake mechanism, NCI-H460 tumor cells were co-incubated with the F-18 labeled tracer and several cold derivatives. These derivatives were used at a concentration of 1 mM, which is a large excess compared to the tracer. L-Glutamic acid, L-cystine, Carboxyphenylglycine (CPG) were used as competitors. In addition, also D-Glutamic acid, as well as L-aspartic acid and D-aspartic acid were used in this competition experiments. […] The same experiments were performed using [^18F]-1, [^18F]-4, [^18F]-9, [^18F]-8, [^18F]-25 and [^18F]-22.

[2] = system: NCI-H460 (human NSCLC) cells; assay: Cell uptake studies: 30 min uptake in H460 cells; format: cell-based; conditions: 0.25 MBq tracer, PBS 0.1% BSA
Method: For determination of the biological activity, the F18 labeled derivatives were used as tracers in cell uptake experiments. NCI-H460 (human NSCLC) cells, grown adherently in 48 well plates were used for these uptake-experiments. Approximately 100.000 cells were incubated with 0.25 MBq of the tracers for 30 min in PBS-buffer containing 0.1% BSA. After this time, the cell-bound radioactivity was determined using a γ-counter.

NCI-H460 tumor [3] = assay: In vivo biodistribution in NCI-H460 tumor bearing mice; conditions: for T/Blood / T/Muscle: 1 h post injection
Method: (§1) To test the pharmacokinetic properties of compounds from the present invention, all F18-labeled compounds were examined by biodistribution studies in NCI-H460 tumor bearing mice. Female NMRI (nu/nu) mice were inoculated with 5×10^6 NCI-H460 tumor cells 8 to 10 days before the biodistribution studies. 185 kBq of activity of the fluorinated compound was injected and at least n=3 mice were used for every time point. After injection of the F18-labeled compound, mice were sacrificed at defined time-points. All organs were removed and radioactivity was determined using a γ-counter.
To compare the tumor uptake and retention of radioactivity of different ^18F-labeled derivatives from the present invention, biodistribution studies were performed in NCI-H460 tumor bearing NMRI (nu/nu) mice as described above.
To compare the kidney clearance of several ^18F-labeled derivatives from the present invention, biodistribution studies were performed in NCI-H460 tumor bearing female NMRI (nu/nu) mice as described above. […] After 2 h p.i., less than 1% ID/g can be found in the kidneys.
For comparison of pancreas uptake and clearance of several ^18F-labeled derivatives from the present invention, biodistribution studies were performed in NCI-H460 tumor bearing NMRI (nu/nu) mice as described above. […] After 2 h p.i., less than 2% ID/g can be found in the pancreas.
as §1, with “and” for “for every time point. After injection of the F18-labeled compound, mice were”, “time-points raning from 15 min pi up to 2 h p.i.” for “time-points.”, “γ-counter. […] High tumor uptake values of >3% ID/g were obtained with various compounds from the present invention.” for “γ-counter.”

NCI-H460 tumor [4] = assay: PET imaging in NCI-H460 tumor bearing nude-rats; format: in vivo; conditions: PET ROI analysis, 1 h p.i.
Method: c) Beside PET-imaging studies in mice, also the imaging properties of [^18F]-12 in rats were examined. NCI-H460 tumor cells were inoculated into the right flank of nude-rats (RH-Foxn1 nu/nu) 8 to 10 days before the PET study. PET images were acquired at 60 min after injection of approximately 10 MBq for 10 minutes. The H460 tumor was nicely visible (0.9% ID/g as determined by ROI analysis). Beside some minor uptake into the liver and kidneys due to the excretion of the compound, no uptake into other non-target tissues was observed.
To test the imaging properties, compounds from the present invention were evaluated in PET imaging studies using tumor bearing rats. NCI-H460 tumor cells were inoculated into the right flank of nude-rats (RH-Foxn1 nu/nu) 8 to 10 days before the PET study. PET images were acquired at 60 min after injection of approximately 10 MBq for 10 minutes. After the imaging study, region-of-interest (ROI) analysis was performed and activity in tumor, liver and kidney was determined. […] High tumor uptake values of >1% […] in this rat model were obtained with various compounds from the present invention. A favorable clearance profile of all compounds enables excellent tumor detection in PET imaging studies in tumor bearing rats.

N[C@@H](C[C@H](CCCc1ccc(OCCF)cc1)C(=O)O)C(=O)O [Example 25, (4S)-4-{3-[4-(2-Fluoroethoxy)phenyl]propyl}-L-glutamic acid]
Uptake of radiolabeled glutamate-derivative (% of control) [1]: 20.1 ± 0.4 % of control

N[C@@H](CC(=O)O)C(=O)O [L-aspartic, L-aspartic acid, reference compound]
reduction of [^18F]-12 uptake by excess competitor (xCT (SLC7A11); competitor 1 mM): less effective competitors

N[C@@H](CSSC[C@H](N)C(=O)O)C(=O)O [L-cystine, reference compound]
Uptake of radiolabeled glutamate-derivative (% of control) [1]: 10.7 ± 0.7 % of control

N[C@@H](CCC(=O)O)C(=O)O [L-glutamic acid, L-glutamate, reference compound]
Uptake of radiolabeled glutamate-derivative (% of control) [1]: 26.1 ± 0.3 % of control

N[C@@H](CC(Cc1ccc(OCCC[18F])cc1)C(=O)O)C(=O)O (stereo partly drawn) [[^18F]-4, 4-[4-(3-[^18F]Fluoropropoxy)benzyl]-L-glutamic acid]
30 min uptake into H460 cells [%/100.000 cells] [2]: 10.0 ± 0.3 %/100.000 cells
Kidney (% ID/g at 1 h p.i.) (NCI-H460 tumor [3]): 1.0 ± 0.3 % ID/g
Liver (% ID/g at 1 h p.i.) (NCI-H460 tumor [3]): 1.5 ± 0.5 % ID/g
Pancreas (% ID/g at 1 h p.i.) (NCI-H460 tumor [3]): 0.8 ± 0.1 % ID/g
Tumor (% ID/g at 1 h p.i.) (NCI-H460 tumor [3]): 2.8 ± 1.8 % ID/g
Urine (% ID at 1 h p.i.) (NCI-H460 tumor [3]): 79.8 ± 2.2 % ID
T/Blood (NCI-H460 tumor [3]): 14.5
T/Muscle (NCI-H460 tumor [3]): 38.8
Kidney (% ID/g at 1 h p.i.) (NCI-H460 tumor [4]): 1.2 % ID/g
Liver (% ID/g at 1 h p.i.) (NCI-H460 tumor [4]): 1.1 % ID/g
Tumor (Max % ID/g at 1 h p.i.) (NCI-H460 tumor [4]): 1 % ID/g
Tumor (Mean % ID/g at 1 h p.i.) (NCI-H460 tumor [4]): 0.7 % ID/g
competition profile / uptake mechanism of the tracer (xCT (SLC7A11)): identical competition profile

N[C@@H](CC(Cc1ccc(NCCC[18F])cc1)C(=O)O)C(=O)O (stereo partly drawn) [[^18F]-8, 4-{4-[(3-[^18F]Fluoropropyl)amino]benzyl}-L-glutamic acid]
30 min uptake into H460 cells [%/100.000 cells] [2]: 15.3 ± 0.1 %/100.000 cells
Kidney (% ID/g at 1 h p.i.) (NCI-H460 tumor [3]): 2.8 ± 0.6 % ID/g
Liver (% ID/g at 1 h p.i.) (NCI-H460 tumor [3]): 1.3 ± 0.3 % ID/g
Pancreas (% ID/g at 1 h p.i.) (NCI-H460 tumor [3]): 2.2 ± 0.4 % ID/g
Tumor (% ID/g at 1 h p.i.) (NCI-H460 tumor [3]): 4.6 ± 0.9 % ID/g
Urine (% ID at 1 h p.i.) (NCI-H460 tumor [3]): 92.7 ± 3.8 % ID
T/Blood (NCI-H460 tumor [3]): 26.8
T/Muscle (NCI-H460 tumor [3]): 46.3
competition profile / uptake mechanism of the tracer (xCT (SLC7A11)): identical competition profile

N[C@@H](CC(Cc1ccc(CCC[18F])cc1)C(=O)O)C(=O)O (stereo partly drawn) [[^18F]-9, 4-[4-(3-[^18F]Fluoropropyl)benzyl]-L-glutamic acid]
30 min uptake into H460 cells [%/100.000 cells] [2]: 4.3 ± 0.2 %/100.000 cells
Kidney (% ID/g at 1 h p.i.) (NCI-H460 tumor [3]): 0.7 ± 0.04 % ID/g
Liver (% ID/g at 1 h p.i.) (NCI-H460 tumor [3]): 0.2 ± 0.1 % ID/g
Pancreas (% ID/g at 1 h p.i.) (NCI-H460 tumor [3]): 0.1 ± 0.01 % ID/g
Tumor (% ID/g at 1 h p.i.) (NCI-H460 tumor [3]): 1.8 ± 0.9 % ID/g
Urine (% ID at 1 h p.i.) (NCI-H460 tumor [3]): 86.3 ± 7.1 % ID
T/Blood (NCI-H460 tumor [3]): 20.5
T/Muscle (NCI-H460 tumor [3]): 61.7
competition profile / uptake mechanism of the tracer (xCT (SLC7A11)): identical competition profile

N[C@@H](C[C@H](CCCc1ccc(OCC[18F])cc1)C(=O)O)C(=O)O [[^18F]-25, (4S)-4-{3-[4-(2-[^18F]Fluoroethoxy)phenyl]propyl}-L-glutamic acid]
30 min uptake into H460 cells [%/100.000 cells] [2]: 3.1 ± 01 %/100.000 cells
Kidney (% ID/g at 1 h p.i.) (NCI-H460 tumor [3]): 0.2 ± 0.05 % ID/g
Liver (% ID/g at 1 h p.i.) (NCI-H460 tumor [3]): 0.2 ± 0.1 % ID/g
Pancreas (% ID/g at 1 h p.i.) (NCI-H460 tumor [3]): 0.04 ± 0.01 % ID/g
Tumor (% ID/g at 1 h p.i.) (NCI-H460 tumor [3]): 0.5 ± 0.1 % ID/g
Urine (% ID at 1 h p.i.) (NCI-H460 tumor [3]): 86.6 ± 4.4 % ID
T/Blood (NCI-H460 tumor [3]): 9.7
T/Muscle (NCI-H460 tumor [3]): 32.2
competition profile / uptake mechanism of the tracer (xCT (SLC7A11)): identical competition profile
